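Assay format: 96-well plates, 48-hour exposure. GI50 is the concentration that inhibits growth by half. Definition used: TGI = concentration required for complete inhibition of growth.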
Experiments:
Experiment in all cases: inhibition of tumour cell growth, NCI panel, 48 h
HCT-116 colon = system: HCT-116 colon
M14 melanoma = system: M14 melanoma
MALME-3M melanoma = system: MALME-3M melanoma
KM12 colon = system: KM12 colon
NCI-H226 lung = system: NCI-H226 lung
SF-295 CNS = system: SF-295 CNS
HL-60(TB) leukemia = system: HL-60(TB) leukemia
HOP-92 NSCLC = system: HOP-92 NSCLC
NCI-H460 lung = system: NCI-H460 lung
A549 NSCLC = system: A549 NSCLC
OVCAR-4 ovarian = system: OVCAR-4 ovarian
A498 renal = system: A498 renal
NCI-H522 lung = system: NCI-H522 lung
CAKI-1 renal = system: CAKI-1 renal
PC-3 prostate = system: PC-3 prostate
SNB-19 CNS = system: SNB-19 CNS
NCI-H23 lung = system: NCI-H23 lung
SK-MEL-28 melanoma = system: SK-MEL-28 melanoma
SNB-75 CNS = system: SNB-75 CNS
IGROV1 ovarian = system: IGROV1 ovarian
786-0 renal = system: 786-0 renal
EKVX NSCLC = system: EKVX NSCLC
SK-MEL-5 melanoma = system: SK-MEL-5 melanoma
COLO 205 colon = system: COLO 205 colon
LOX IMVI melanoma = system: LOX IMVI melanoma
UACC-257 melanoma = system: UACC-257 melanoma
SF-539 CNS = system: SF-539 CNS
SW-620 colon = system: SW-620 colon
MCF7 breast = system: MCF7 breast
OVCAR-3 ovarian = system: OVCAR-3 ovarian
TK-10 renal = system: TK-10 renal
CCRF-CEM leukemia = system: CCRF-CEM leukemia
BT-549 breast = system: BT-549 breast
HCT-15 colon = system: HCT-15 colon
OVCAR-5 ovarian = system: OVCAR-5 ovarian
HOP-62 NSCLC = system: HOP-62 NSCLC
SF-268 CNS = system: SF-268 CNS
MDA-MB-435 = system: MDA-MB-435
SK-OV-3 ovarian = system: SK-OV-3 ovarian
SR leukemia = system: SR leukemia
MOLT-4 leukemia = system: MOLT-4 leukemia
HCC-2998 colon = system: HCC-2998 colon
SK-MEL-2 melanoma = system: SK-MEL-2 melanoma
DU-145 prostate = system: DU-145 prostate
T-47D breast = system: T-47D breast
SN12C renal = system: SN12C renal
RXF 393 renal = system: RXF 393 renal
U251 CNS = system: U251 CNS
HT29 colon = system: HT29 colon
NCI/ADR-RES ovarian = system: NCI/ADR-RES ovarian
MDA-MB-231 breast = system: MDA-MB-231 breast
UO-31 renal = system: UO-31 renal
ACHN renal = system: ACHN renal
OVCAR-8 ovarian = system: OVCAR-8 ovarian
UACC-62 melanoma = system: UACC-62 melanoma

Compound: O=C(CCN1CCCC1)Nc1ccc2c(NCc3ccc(F)cc3)c3ccccc3nc2c1
- GI50 (HCT-116 colon): 313 nM
- TGI (HCT-116 colon): 1350 nM
- GI50 (M14 melanoma): 1070 nM
- TGI (M14 melanoma): 2400 nM
- GI50 (MALME-3M melanoma): 1110 nM
- TGI (MALME-3M melanoma): 2400 nM
- GI50 (KM12 colon): 431 nM
- TGI (KM12 colon): 1620 nM
- GI50 (NCI-H226 lung): 570 nM
- TGI (NCI-H226 lung): 2630 nM
- GI50 (SF-295 CNS): 590 nM
- TGI (SF-295 CNS): 2030 nM
- GI50 (HL-60(TB) leukemia): 550 nM
- TGI (HL-60(TB) leukemia): 2340 nM
- GI50 (HOP-92 NSCLC): 366 nM
- TGI (HOP-92 NSCLC): 2070 nM
- GI50 (NCI-H460 lung): 336 nM
- TGI (NCI-H460 lung): 1150 nM
- GI50 (A549 NSCLC): 384 nM
- TGI (A549 NSCLC): 1790 nM
- GI50 (OVCAR-4 ovarian): 450 nM
- TGI (OVCAR-4 ovarian): 1840 nM
- GI50 (A498 renal): 733 nM
- TGI (A498 renal): 2260 nM
- GI50 (NCI-H522 lung): 394 nM
- TGI (NCI-H522 lung): 1750 nM
- GI50 (CAKI-1 renal): 1420 nM
- TGI (CAKI-1 renal): 5.42 µM
- GI50 (PC-3 prostate): 479 nM
- TGI (PC-3 prostate): 1900 nM
- GI50 (SNB-19 CNS): 470 nM
- TGI (SNB-19 CNS): 1870 nM
- GI50 (NCI-H23 lung): 413 nM
- TGI (NCI-H23 lung): 1670 nM
- GI50 (SK-MEL-28 melanoma): 1470 nM
- TGI (SK-MEL-28 melanoma): 2880 nM
- GI50 (SNB-75 CNS): 506 nM
- TGI (SNB-75 CNS): 1870 nM
- GI50 (IGROV1 ovarian): 363 nM
- TGI (IGROV1 ovarian): 1500 nM
- GI50 (786-0 renal): 550 nM
- TGI (786-0 renal): 1940 nM
- GI50 (EKVX NSCLC): 580 nM
- TGI (EKVX NSCLC): 2300 nM
- GI50 (SK-MEL-5 melanoma): 1440 nM
- TGI (SK-MEL-5 melanoma): 2760 nM
- GI50 (COLO 205 colon): 396 nM
- TGI (COLO 205 colon): 1650 nM
- GI50 (LOX IMVI melanoma): 380 nM
- TGI (LOX IMVI melanoma): 1480 nM
- GI50 (UACC-257 melanoma): 1740 nM
- TGI (UACC-257 melanoma): 3.54 µM
- GI50 (SF-539 CNS): 443 nM
- TGI (SF-539 CNS): 1630 nM
- GI50 (SW-620 colon): 353 nM
- TGI (SW-620 colon): 1530 nM
- GI50 (MCF7 breast): 314 nM
- TGI (MCF7 breast): 1310 nM
- GI50 (OVCAR-3 ovarian): 488 nM
- TGI (OVCAR-3 ovarian): 1920 nM
- GI50 (TK-10 renal): 1040 nM
- TGI (TK-10 renal): 2930 nM
- GI50 (CCRF-CEM leukemia): 463 nM
- TGI (CCRF-CEM leukemia): 13.4 µM
- GI50 (BT-549 breast): 1200 nM
- TGI (BT-549 breast): 2670 nM
- GI50 (HCT-15 colon): 1530 nM
- TGI (HCT-15 colon): 4.07 µM
- GI50 (OVCAR-5 ovarian): 480 nM
- TGI (OVCAR-5 ovarian): 2010 nM
- GI50 (HOP-62 NSCLC): 611 nM
- TGI (HOP-62 NSCLC): 2620 nM
- GI50 (SF-268 CNS): 465 nM
- TGI (SF-268 CNS): 1910 nM
- GI50 (MDA-MB-435): 692 nM
- TGI (MDA-MB-435): 1970 nM
- GI50 (SK-OV-3 ovarian): 849 nM
- TGI (SK-OV-3 ovarian): 3.5 µM
- GI50 (SR leukemia): 349 nM
- TGI (SR leukemia): 1720 nM
- GI50 (MOLT-4 leukemia): 398 nM
- TGI (MOLT-4 leukemia): 2340 nM
- GI50 (HCC-2998 colon): 485 nM
- TGI (HCC-2998 colon): 2030 nM
- GI50 (SK-MEL-2 melanoma): 1210 nM
- TGI (SK-MEL-2 melanoma): 2700 nM
- GI50 (DU-145 prostate): 368 nM
- TGI (DU-145 prostate): 1540 nM
- GI50 (T-47D breast): 768 nM
- TGI (T-47D breast): 3.22 µM
- GI50 (SN12C renal): 390 nM
- TGI (SN12C renal): 1660 nM
- GI50 (RXF 393 renal): 401 nM
- TGI (RXF 393 renal): 1610 nM
- GI50 (U251 CNS): 462 nM
- TGI (U251 CNS): 1880 nM
- GI50 (HT29 colon): 377 nM
- TGI (HT29 colon): 1850 nM
- GI50 (NCI/ADR-RES ovarian): 9.11 µM
- TGI (NCI/ADR-RES ovarian): 43.9 µM
- GI50 (MDA-MB-231 breast): 454 nM
- TGI (MDA-MB-231 breast): 1910 nM
- GI50 (UO-31 renal): 1330 nM
- TGI (UO-31 renal): 3.09 µM
- GI50 (ACHN renal): 483 nM
- TGI (ACHN renal): 1870 nM
- GI50 (OVCAR-8 ovarian): 517 nM
- TGI (OVCAR-8 ovarian): 2860 nM
- GI50 (UACC-62 melanoma): 827 nM
- TGI (UACC-62 melanoma): 2160 nM

Source: PubChem BioAssay (NCI)
